What all share (format): cell-based, human
Assay [1] deals with hypermethylated neuroblastoma cell lines. As to the kind of experiment: Telomerase inhibitor treatment of hypermethylated neuroblastoma cell lines. Conditions: two neuroblastoma cell lines hypermethylated in region 2 of the TERT promoter, 5 μM for 5 weeks.
The test system of assay [2] is glioma G179 tumour-initiating cells. The experiment in a line: Telomerase inhibition, cell population doubling analysis, G179 TIC line. Particulars: Imetelstat 5 μM twice a week. From the text:
Samples were obtained with patients' consent according to the Research Ethics Boards at The Hospital for Sick Children and Toronto Western Hospital. Fetal Neural Stem (NS) HF240 cells, human Mesenchymal Progenitor cells, human umbilical cord perivascular cells, and human skin-derived precursors hSKPs were previously described (Castelo-Branco et al. Clin Cancer Res. 2011 Jan. 1; 17(1):111-21). Glioma tumour-initiating cell (TIC) lines G179 and GLINS1 were derived from patients diagnosed with classic glioblastoma multiforme and maintained as previously described (Castelo-Branco et al., 2011). All cell lines and patient samples are described in Table 1.
HF240 normal neural stem cell line and the G179 TIC line were treated twice a week with 5 μM Imetelstat telomerase inhibitor. Cell population doubling analysis after treatment was then determined.

Assay [3] has as its system neuroblastoma cell line (CHLA90). As to the kind of experiment: Telomerase inhibitor treatment of unmethylated neuroblastoma cell line CHLA90. Conditions: CHLA90, unmethylated within region 2 of the TERT promoter, evidence of ALT; 5 μM for 5 weeks.

“Also recorded” adds a separate entry of the source.

Turning to Imetelstat, the “response to treatment (growth and viability)” value is “responded” in assay [1]; “inhibitory effect on growth and viability” in assay [1] (listed as imetelstat); “did not” in assay [3]. In addition, the “growth / replicative potential (cell population doubling)” value in assay [2] is on record as “inhibit growth; also recorded: loss of replicative potential”.

The values above are taken from US10597730B2, “Method of diagnosing cancer” (The Hospital for Sick Children, priority 2012, dated 2020).
